{
  "source": "patent US4454122A",
  "about": "“Adenosine derivatives of anti-inflammatory and analgesic activity, and therapeutic compositions which contain them as their active principle” (Bioresearch S.r.l., priority 1982, dated 1984)",
  "key": {"[1]": {"tested_on": "experimental edema in the rat by carragen", "assay": "experimental edema in the rat by carragen (Winter method), percentage protection", "assay_type": "in vivo", "details": "im; 23 mg/kg intramuscularly, rat; read-out: Percent protection calculated on edema development", "method": "^ (a) signifies that the product was administered intramuscularly."}, "gastro-intestinal system": {"tested_on": "gastro-intestinal system", "assay": "secondary effects on the gastro-intestinal system at ED50 doses (gastric lesions)", "assay_type": "in vivo, rat", "details": "rat, in vivo", "method": "In the same test, the ED50 of indomethacine is 9 mg/kg."}, "[2]": {"assay": "lethal dose in the rat and therapeutical index", "details": "in vivo"}, "[3]": {"tested_on": "pleuritis induced in the rat by carragen", "assay": "pleuritis induced in the rat by carragen (Velo method)", "assay_type": "in vivo", "details": "75 mg/kg, oral, rat"}, "[4]": {"assay": "granuloma test in the rat by cotton pellets", "assay_type": "in vivo", "details": "in vivo, 9 mg/kg, oral, read-out: TI (granuloma test)", "excerpt": "(§1) In the granuloma test in the rat by cotton pellets (Winter […]. et al (1963) J. Pharm. Exper."}, "[5]": {"tested_on": "granuloma in the rat by cotton pellets", "assay": "granuloma test in the rat by cotton pellets", "assay_type": "in vivo", "details": "9 mg/kg, oral", "excerpt": "as §1"}, "mouse": {"tested_on": "mouse", "assay": "hot plate test on the mouse according to Roberts (analgesic activity)", "assay_type": "in vivo", "details": "37 mg/kg, oral", "method": "C--The analgesic activity of the products was tested by two tests considered very significant.\nIn the hot plate test on the mouse according to Roberts (Roberts E. Simonsen D.G. (1966) Biochem. Pharmac. 15, 1875-) the MTA gives a protection of 50% with an oral dose of 37 mg/kg. An approximately equivalent protection of 58% is obtained with 100 mg/kg of amidopyrine administered orally."}, "[6]": {"tested_on": "stretching by phenylquinone", "assay": "stretching test by phenylquinone (analgesic activity)", "assay_type": "in vivo", "details": "37 mg/kg, oral"}, "[7]": {"tested_on": "fever induced in the rat by beer yeast", "assay": "fever induced in the rat by beer yeast (antipyretic activity)", "assay_type": "in vivo", "method": "This was measured for the new products by means of fever induced in the rat by beer yeast (Winder C. V. et al (1961) J. Pharmacol. Exp. Ther. 133, 117)."}, "[8]": {"tested_on": "platelet aggregation induced by ADP", "assay": "in vitro platelet aggregation induced by ADP (Born & Cross method)", "assay_type": "cell-based", "method": "(§2) (1) \"in vitro\" tests on platelet aggregation induced by ADP and collagen, in the presence of the new products;\n(§3) Blood was withdrawn without stasis, and an anticoagulant (3.8% sodium citrate) was added to give a blood:citrate ratio of 9:1. Plasma rich in platelets and plasma poor in platelets were obtained by centrifuging at ambient temperature.\n(§4) The platelet aggregation was estimated using the Born & Cross method (G. V. R. Born and M. J. Cross, J. Physiol., Lond. 168, 178, 1963) on the plasma fraction rich in platelets.\n(§5) The aggregating agents were used in the following concentrations:\n(§6) ADP (Sigma) 1 μM; collagen (Horn) 5 μml; arachidonic acid 4×10^-4 M.\nAdenosine at a concentration of 1×10^-5 M was used as the antiaggregation activity reference substance.\nThe results obtained with ADP are shown on the graphs of FIG. 1, in which the abscissa indicates the time in minutes and the ordinate the percentage aggregation.\nCurve 1 relates to the controls, curve 2 to the samples treated with 1×10^-5 M adenosine, and curve 3 to the samples treated with 5×10^-4 M MTA."}, "[9]": {"tested_on": "platelet aggregation induced by collagen", "assay": "in vitro platelet aggregation induced by collagen (Born & Cross method)", "assay_type": "cell-based", "method": "as §2, §3, §4, §5, §6"}, "[10]": {"tested_on": "platelet aggregation induced by arachidonic acid", "assay": "in vitro platelet aggregation induced by arachidonic acid (AA)", "assay_type": "cell-based", "method": "(2) \"in vitro\" tests on platelet aggregation induced by arachidonic acid (AA);\nas §3, §4, §5, §6\nThe capacity of MTA to increase the inhibiting effect of prostacyclin (PGI2) in aggregation induced by AA was also investigated. In FIG. 3, curve 1 relates to the controls, curve 2 to MTA at a concentration of 5×10^-4 M, curve 3 to PGI2 at a concentration of 5×10^-9 M, and curve 4 to a mixture consisting of 5×10^-4 M MTA and 5×10^-9 M PGI2."}, "[11]": {"tested_on": "platelet aggregation induced by ADP", "assay": "platelet aggregation induced by ADP in persons treated with the product (\"in vivo\" tests)", "set-up": "species or system healthy volunteer subjects", "details": "100 mg every 8 hours for 3 days; ADP 1 μM; FIG. 4", "method": "(§7) (3) \"in vitro\" tests on platelet aggregation induced by ADP and collagen in persons treated with the new products.\n(§8) Three apparently healthy volunteer subjects respectively, and who had not taken any drug for at least 15 days, were submitted to aggregation tests before and after consuming the new products at a dose of 100 mg every 8 hours for 3 days, these tests then being evaluated. The blood sample for the determination of the platelet aggregation was taken 2 hours […] consuming the last dose of product under test.\nMore precisely, the full-line curves relate to the values obtained with blood samples from untreated patients, whereas the dashed-line curves relate to the values obtained for the same patients treated with MTA."}, "[12]": {"tested_on": "platelet aggregation induced by collagen", "assay": "platelet aggregation induced by collagen in persons treated with the product (\"in vivo\" tests)", "set-up": "species or system healthy volunteer subjects", "details": "100 mg every 8 hours for 3 days; collagen 5 μg/ml", "method": "as §7, §8"}, "[13]": {"tested_on": "sleep induced by pentobarbital in the mouse", "assay": "Morris test, duration of the sleep induced by pentobarbital in the mouse", "assay_type": "in vivo", "details": "20 mg/kg, intramuscular", "method": "The Morris test was used (Morris R. W. (1966) Arch. int. Pharmacodyn 161, No. 2, 380)\nIn this test, the MTA increased by 87% the duration of the sleep induced by pentobarbital in the mouse, at an intramuscular dose of 20 mg/kg."}, "[14]": {"assay": "acute toxicity, DL50 in the mouse", "details": "in vivo, po, orally", "excerpt": "The compounds of the present invention are practically free from acute toxicity when administered orally. They are practically free from toxicity at therapeutic doses for any method of administration. The following values are obtained for MTA and MTA sulphoxide: […]"}, "[15]": {"tested_on": "experimental edema in the rat by carragen", "assay": "experimental edema in the rat by carragen (Winter method), percentage protection", "assay_type": "in vivo", "details": "po, rat"}, "[16]": {"details": "summary of in vitro and in vivo tests"}},
  "data": [
    {"smiles": "CSC[C@H]1O[C@@H](n2cnc3c(N)ncnc32)[C@H](O)[C@@H]1O", "note": "[MTA, 5'-deoxy-5'-methyl-thioadenosine]", "values": [
      {"measurement": "inhibition in vivo at 23 mg/kg", "setting": "[1]", "value": 50, "unit": "%"},
      {"measurement": "secondary effect on the gastro-intestinal system / gastric lesions", "setting": "gastro-intestinal system", "value": "no secondary effect on the gastro-intestinal system"},
      {"measurement": "selectivity ratio", "setting": "[2]; edema test in the rat, read-out: therapeutical index (TI)", "value": "> 54"},
      {"measurement": "LD50", "setting": "[2]; rat, route printed \"/oa\"", "value": 200, "unit": "mg/kg"},
      {"measurement": "protection calculated on the total number of cells present in the exudate", "setting": "[3]", "value": 48.8, "unit": "%"},
      {"measurement": "protection calculated on the volume of the exudate", "setting": "[3]", "value": 42.4, "unit": "%"},
      {"measurement": "selectivity ratio", "setting": "[4]", "value": 222},
      {"measurement": "protection in the granuloma test", "setting": "[5]", "value": 30, "unit": "%"},
      {"measurement": "protection in the hot plate test", "setting": "mouse", "value": 50, "unit": "%"},
      {"measurement": "protection in the stretching test by phenylquinone", "setting": "[6]", "value": 51, "unit": "%"},
      {"measurement": "temperature reduction", "setting": "[7]; 80 mg/kg, intramuscular", "value": 2.35, "unit": "%"},
      {"measurement": "temperature reduction with respect to the controls", "setting": "[7]; 300 mg/kg, oral, one hour after administration", "value": 4.59, "unit": "%"},
      {"measurement": "temperature after lowering (from 38.8° C.)", "setting": "[7]; 300 mg/kg, oral, one hour after administration, lowering from 38.8° C.", "value": 37.4, "unit": "°C"},
      {"measurement": "effect on primary platelet aggregation due to ADP (in words)", "setting": "[8]; 5×10^-4 M, ADP 1 μM, in vitro, FIG. 1", "value": "strongly reduces primary platelet aggregation due to ADP"},
      {"measurement": "effect on 2nd aggregation wave (in words)", "setting": "[8]; 5×10^-4 M, ADP 1 μM, in vitro, as a consequence of reduced primary aggregation", "value": "inhibits the 2nd aggregation wave"},
      {"measurement": "effect on the 1st aggregation wave (in words)", "setting": "[8]; [16]", "value": "inhibits the 1st aggregation wave"},
      {"measurement": "inhibition of platelet aggregation induced by ADP, overall (in words)", "setting": "[8]; [16]", "value": "strongly inhibits platelet aggregation induced by ADP"},
      {"measurement": "inhibiting power towards platelet aggregation induced by collagen (in words)", "setting": "[9]; in vitro, collagen printed 5 μml", "value": "no inhibiting power towards platelet aggregation induced by collagen which was worthy of note"},
      {"measurement": "direct effect on the 2nd aggregation wave (in words)", "setting": "[9]; [16]", "value": "negligible direct effect on the 2nd aggregation wave"},
      {"measurement": "effect on aggregation induced by collagen, overall (in words)", "setting": "[9]; [16]", "value": "practically no effect on aggregation induced by collagen"},
      {"measurement": "platelet aggregation inhibiting effect, AA induced (in words)", "setting": "[10]; 2.5×10^-4, 5×10^-4 and 10^-3 M, AA 4×10^-4 M, FIG. 2", "value": "proportional to its concentration"},
      {"measurement": "antiaggregation action alone, AA induced (in words)", "setting": "[10]; MTA 5×10^-4 M or PGI2 5×10^-9 M, each alone, FIG. 3", "value": "ineffective"},
      {"measurement": "platelet aggregation induced by ADP \"in vivo\" (in words)", "setting": "[11]", "value": "strongly inhibits platelet aggregation induced by ADP"},
      {"measurement": "inhibition of platelet aggregation induced by collagen (in words)", "setting": "[12]", "value": "not effective in inhibiting platelet aggregation induced by collagen"},
      {"measurement": "latency time of platelet aggregation induced by collagen (in words)", "setting": "[12]", "value": "lengthens the latency time"},
      {"measurement": "increase of the duration of the sleep induced by pentobarbital", "setting": "[13]", "value": 87, "unit": "%"},
      {"measurement": "LD50", "setting": "[14]", "value": "> 2000", "unit": "mg/kg"},
      {"measurement": "inhibition in vivo at 37 mg/kg", "setting": "[15]; 37 mg/kg orally, read-out: Percent protection calculated on edema development", "value": 50, "unit": "%"},
      {"measurement": "ED50", "setting": "[15]; administered orally, read-out: ED50 (edema test)", "value": 37, "unit": "mg/kg"}
    ]}
  ]
}
